We go through 21 compounds from patent EP1388586A2, “Identification of broadly reactive DR restricted epitopes” (priority 1998, dated 1999).

Like-named read-outs stand apart in the source and are kept apart here. Ends that are not written are not given here. Peptide text beside a SMILES is read from it.

The target in the assay is T1, DRB1*0301 (DR3w17) (Homo sapiens, UniProt P01903+P01911, A100K/A102G/A103R/A169T/F55Y/I96L/K41T/L162R/M171V/P40S/Q125H/Q178H/Q39Y/R42S/S66N/T106N/T262R/W38E/Y61H).
T1 construct: used as sources of human HLA class II molecules; endogenous in cells; host or cells: MAT (EBV-transformed homozygous B cell line)
T1 sequence (P01903 26-254, other chains not shown): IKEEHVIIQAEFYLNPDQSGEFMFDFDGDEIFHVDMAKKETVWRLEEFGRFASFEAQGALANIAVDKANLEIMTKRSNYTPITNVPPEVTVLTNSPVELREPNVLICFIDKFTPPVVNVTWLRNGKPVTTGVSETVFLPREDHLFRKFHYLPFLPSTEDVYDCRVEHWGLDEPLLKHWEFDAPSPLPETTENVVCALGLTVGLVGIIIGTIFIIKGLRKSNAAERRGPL
Nature of the assay: Class II peptide-binding assay, DR3 (pH 4.5).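 Further: unlabeled peptide competing with a radiolabeled probe peptide for binding to affinity-purified HLA-DR3, IC50 regarded as an approximation of Kd.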 As to conditions: Table VIII.

The mark [1] stands for this setting: read-out: In IC50 Format DR3 nM, values in parentheses read as lower bounds.

The IC50 is the concentration that inhibits the measured activity by half. On to `CC[C@H](C)[C@H](NC(=O)[C@H](C)NC(=O)[C@@H](N)CCSC)C(=O)N[C@@H](Cc1ccc(O)cc1)C(=O)N[C@@H](CCCCN)C(=O)N[C@@H](CCC(N)=O)C(=O)N[C@@H](CO)C(=O)N[C@@H](CCC(N)=O)C(=O)N[C@@H](Cc1c[nH]cn1)C(=O)N[C@@H](CCSC)C(=O)N[C@H](C(=O)N[C@@H](CCC(=O)O)C(=O)N[C@H](C(=O)N[C@H](C(=O)N[C@@H](CCCNC(=N)N)C(=O)O)C(C)C)C(C)C)[C@@H](C)O` [Peptide 39.0414], for which the IC50 (read-out: In IC50 Format DR3) is greater than 120 µM. Turning to NQEVTAEDGTQRCEK [Peptide 39.0347], the IC50 under setting [1] is greater than 111 µM. Same read-out and setting: in the case of DLTLGLEPSEEEAPR [Peptide 39.0377] it was greater than 120 µM. As to `CC(C)C[C@H](NC(=O)[C@H](CS)NC(=O)[C@H](Cc1c[nH]cn1)NC(=O)[C@H](CCCNC(=N)N)NC(=O)[C@H](C)NC(=O)[C@H](CC(N)=O)NC(=O)[C@@H](NC(=O)[C@H](Cc1ccc(O)cc1)NC(=O)[C@H](CCC(=O)O)NC(=O)[C@H](CCCNC(=N)N)NC(=O)[C@@H]1CCCN1C(=O)[C@H](CC(C)C)NC(=O)CNC(=O)[C@H](CCC(N)=O)NC(=O)[C@@H](N)CC(C)C)C(C)C)C(=O)O` [Peptide 39.0355], under setting [1], the IC50 was greater than 111 µM. Still for that read-out and setting: in the case of GDLVDAEEYLVPQQG [Peptide 39.0375] it was 12 µM.

Regarding `CC[C@H](C)[C@H](NC(=O)[C@@H](NC(=O)[C@@H](N)CC(C)C)[C@@H](C)O)C(=O)N[C@H](C(=O)N[C@H](C(=O)N[C@@H](CC(C)C)C(=O)N[C@@H](CCC(=O)O)C(=O)N[C@@H](CC(=O)O)C(=O)N[C@@H](CO)C(=O)N[C@@H](CO)C(=O)NCC(=O)N[C@@H](CC(N)=O)C(=O)N[C@@H](CC(C)C)C(=O)N[C@@H](CC(C)C)C(=O)NCC(=O)O)[C@@H](C)O)[C@@H](C)CC` [Peptide 39.0421], the IC50 (read-out: In IC50 Format DR3) worked out at 100 µM. SDVFDGDLGMGAAKG [Peptide 39.0378]: the IC50 under setting [1] is greater than 120 µM.

As for `CC[C@H](C)[C@H](NC(=O)CNC(=O)[C@H](Cc1ccccc1)NC(=O)[C@@H](NC(=O)[C@H](CC(C)C)NC(=O)[C@@H](N)CCC(N)=O)C(C)C)C(=O)N[C@@H](CCC(=O)O)C(=O)N[C@H](C(=O)N[C@H](C(=O)N[C@@H](CCC(=O)O)C(=O)N[C@H](C(=O)N[C@H](C(=O)N1CCC[C@H]1C(=O)N[C@H](C(=O)N[C@@H](CO)C(=O)O)[C@@H](C)CC)C(C)C)C(C)C)C(C)C)C(C)C` [Peptide 39.0389], the IC50 under setting [1] worked out at 41.7 µM. Consider `CC(C)C[C@H](NC(=O)[C@@H]1CCCN1C(=O)[C@@H](NC(=O)[C@@H](NC(=O)[C@@H]1CCCN1C(=O)[C@H](CC(=O)O)NC(=O)[C@H](CCC(=O)O)NC(=O)[C@H](CO)NC(=O)[C@H](Cc1ccc(O)cc1)NC(=O)[C@H](CCCNC(=N)N)NC(=O)[C@H](CCC(N)=O)NC(=O)[C@@H](N)CC(C)C)[C@@H](C)O)C(C)C)C(=O)N1CCC[C@H]1C(=O)N[C@@H](CO)C(=O)N[C@@H](CCC(=O)O)C(=O)O` [Peptide 39.0379], for which the IC50 under setting [1] is 11.1 µM. As for TVPLPSETDGYVAPL [Peptide 39.0380], the IC50 under setting [1] was greater than 120 µM. Consider `CC(C)C[C@H](NC(=O)[C@H](CC(=O)O)NC(=O)[C@@H](NC(=O)[C@H](CS)NC(=O)[C@H](CO)NC(=O)[C@@H](N)Cc1c[nH]cn1)C(C)C)C(=O)N[C@@H](CC(=O)O)C(=O)N[C@@H](CC(=O)O)C(=O)N[C@@H](CCCCN)C(=O)NCC(=O)N[C@@H](CS)C(=O)N1CCC[C@H]1C(=O)N[C@@H](C)C(=O)N[C@@H](CCC(=O)O)C(=O)N[C@@H](CCC(N)=O)C(=O)O` [Peptide 39.0359], for which the half-maximal inhibitory concentration (IC50) under setting [1] was greater than 111 µM.

DNLYYWDQDPPERGA [Peptide 39.0383]: the IC50 under setting [1] is greater than 120 µM. For NKEILDEAYVMAGVG [Peptide 39.0363], the IC50 under setting [1] worked out at 63.8 µM. In the case of `CC[C@H](C)[C@H](N)C(=O)N[C@@H](Cc1c[nH]c2ccccc12)C(=O)N[C@@H](CCCCN)C(=O)N[C@@H](Cc1ccccc1)C(=O)N1CCC[C@H]1C(=O)N[C@@H](CC(=O)O)C(=O)N[C@@H](CCC(=O)O)C(=O)N[C@@H](CCC(=O)O)C(=O)NCC(=O)N[C@@H](C)C(=O)N[C@@H](CS)C(=O)N[C@@H](CCC(N)=O)C(=O)N1CCC[C@H]1C(=O)N[C@@H](CS)C(=O)N1CCC[C@H]1C(=O)O` [Peptide 39.0358] (H-IWKFPDEEGACQPCP-OH), the IC50 under setting [1] is greater than 111 µM. Regarding `CC[C@H](C)[C@H](NC(=O)[C@H](CCC(N)=O)NC(=O)[C@H](CC(C)C)NC(=O)[C@@H](NC(=O)[C@H](Cc1ccccc1)NC(=O)[C@H](Cc1ccc(O)cc1)NC(=O)[C@H](CCC(=O)O)NC(=O)CNC(=O)[C@H](CC(=O)O)NC(=O)[C@H](CC(C)C)NC(=O)[C@@H]1CCCN1C(=O)[C@H](CCCCN)NC(=O)[C@@H](N)CCCCN)[C@@H](C)O)C(=O)N[C@@H](CCCNC(=N)N)C(=O)NCC(=O)O` [Peptide 39.0422], the IC50 (read-out: In IC50 Format DR3) is greater than 120 µM.

For `CC(C)[C@H](N)C(=O)N[C@H](C(=O)N[C@@H](CS)C(=O)N[C@@H](Cc1ccccc1)C(=O)NCC(=O)N1CCC[C@H]1C(=O)N[C@@H](CCC(=O)O)C(=O)N[C@@H](C)C(=O)N[C@@H](CC(=O)O)C(=O)N[C@@H](CCC(N)=O)C(=O)N[C@@H](CS)C(=O)N[C@H](C(=O)N[C@@H](C)C(=O)N[C@@H](CS)C(=O)N[C@@H](C)C(=O)O)C(C)C)[C@@H](C)O` [Peptide 39.0356], the IC50 under setting [1] is greater than 111 µM. Turning to `CC(C)C[C@H](NC(=O)[C@@H](NC(=O)[C@H](CCC(=O)O)NC(=O)[C@H](Cc1ccccc1)NC(=O)[C@@H](NC(=O)[C@H](CCC(N)=O)NC(=O)[C@H](CC(C)C)NC(=O)[C@H](CCC(N)=O)NC(=O)[C@H](CCC(=O)O)NC(=O)[C@@H]1CCCN1C(=O)[C@H](CCC(N)=O)NC(=O)[C@H](CC(C)C)NC(=O)[C@@H]1CCCN1C(=O)[C@H](C)NC(=O)[C@@H](N)[C@@H](C)O)C(C)C)[C@@H](C)O)C(=O)O` [Peptide 39.0351], the IC50 under setting [1] turned out to be 130 µM. Regarding `CC[C@H](C)[C@H](NC(=O)[C@@H](NC(=O)[C@H](Cc1c[nH]cn1)NC(=O)[C@@H](N)CC(C)C)C(C)C)C(=O)N[C@@H](CCCCN)C(=O)N[C@@H](CO)C(=O)N[C@@H](CC(=O)O)C(=O)N[C@@H](CC(C)C)C(=O)N[C@H](C(=O)N[C@@H](CC(N)=O)C(=O)N[C@@H](CCC(=O)O)C(=O)N[C@@H](CCC(=O)O)C(=O)N[C@@H](C)C(=O)N[C@H](C(=O)NCC(=O)O)[C@@H](C)O)C(C)C` [Peptide 39.0314], the IC50 (page 2, pH 4.5, read-out: In IC50 Format DR3) is 2.31 µM.

Take `CC(C)C[C@H](NC(=O)[C@H](CCCCN)NC(=O)[C@H](Cc1c[nH]c2ccccc12)NC(=O)[C@H](CC(C)C)NC(=O)[C@H](CC(=O)O)NC(=O)[C@H](CO)NC(=O)[C@H](Cc1ccccc1)NC(=O)[C@@H](NC(=O)[C@H](CCC(=O)O)NC(=O)[C@H](CCC(N)=O)NC(=O)[C@H](CO)NC(=O)[C@H](CC(C)C)NC(=O)[C@@H]1CCCN1C(=O)[C@@H]1CCCN1C(=O)[C@@H](N)CCC(=O)O)[C@@H](C)O)C(=O)O` [Peptide 39.0409]: the IC50 (read-out: In IC50 Format DR3) was greater than 120 µM. For FVVIQNEDLGPASPL [Peptide 39.0372], the IC50 under setting [1] was greater than 120 µM.

In the case of `CC(C)C[C@H](NC(=O)[C@@H]1CCCN1C(=O)[C@H](C)NC(=O)[C@@H](NC(=O)[C@H](CC(N)=O)NC(=O)[C@H](CO)NC(=O)[C@H](C)NC(=O)[C@@H]1CCCN1C(=O)[C@H](CC(=O)O)NC(=O)CNC(=O)[C@H](CC(=O)O)NC(=O)[C@H](Cc1ccccc1)NC(=O)[C@H](CO)NC(=O)[C@H](CCC(=O)O)NC(=O)[C@@H]1CCCN1)[C@@H](C)O)C(=O)O` [Peptide 39.0350], under setting [1], the IC50 was greater than 111 µM.
